The test has as its target F508delCFTR (Homo sapiens, UniProt P13569, DEL508-508). Briefly: Cell Surface Expression-Horse Radish Peroxidase (CSE-HRP) assay. It counts as cell-based. The note with it: CFBE4lo-F508delCFTR-HRP cells; for pEC50: 18-24 hours at 33° C., 8-point curve, highest concentration 20 μM, luminescence readout; for Emax: maximum % activity at any tested concentration, normalized to on-plate positive control (3 μM Example 1). Set-up: expressed in transfected cells; host or cells: CFBE41o- human lung derived epithelial cell line, doxycycline-inducible. The text has this:
Cell Surface Expression-Horse Radish Peroxidase (CSE-HRP) Assay:
A cellular assay for measuring the F508delCFTR cell surface expression after correction with test compounds was developed in human lung derived epithelial cell line (CFBE4lo-) (Veit G et al, (2012) Mol Biol Cell. 23(21): 4188-4202). This was achieved by expressing the F508delCFTR mutation along with a horseradish peroxidase (HRP) in the fourth exofacial loop and then measuring the HRP activity using luminescence readout from these cells, CFBE4lo-F508delCFTR-HRP, that were incubated overnight with the test corrector compounds. Briefly, for this primary assay, the CFBE4lo-F508delCFTR-HRP cells were plated in 384-well plates (Greiner Bio-one; Cat 781080) at 4,000 cells/well along with 0.5 μg/mL doxycycline to induce the F508delCFTR-HRP expression and further incubated at 37° C., 5% CO2 for 72 hours. The test compounds were then added at the required concentrations and further incubated for 18-24 hours at 33° C. The highest concentration tested was 20 μM with an 8-point concentration response curve using a 3-fold dilution. Three replicate plates were run to determine one EC50. All plates contained negative controls (dimethyl sulfoxide, DMSO) and positive controls (3 μM of 3-[(2R,4R)-4-({[1-(2,2-difluoro-1,3-benzodioxol-5-yl)cyclopropyl]carbonyl}amino)-7-methoxy-3,4-dihydro-2H-chromen-2-yl]benzoic acid) as well as on-plate concentration response of the positive control. Post incubation, the plates were washed 5× times with Dulbecco's phosphate buffered saline (DPBS), followed by the addition of the HRP substrate, luminol (50 μL), and measuring the HRP activity using luminescence readout on EnVision® Multilabel Plate Reader (Perkin Elmer; product number 2104-0010). The raw counts from the experiment are analyzed using Accelrys® Assay Explorer v3.3.
Z′ greater than 0.5 was used as passing quality control criteria for the plates.
The Z′ is defined as: 1−[3*SDPositive Control+3*SDNegative Control/Absolute(MeanPositive Control−MeanNegative Control)] wherein “SD” is standard deviation.
The % activity measured at each of the 8 test concentrations of the test compound was normalized to the on-plate positive control using the following formula: % activity=[(test compound response−DMSO response)/(positive control response−DMSO response)]*100
The maximum % activity achieved for the test compound at any tested concentration is presented in Table 1 along with the EC50 calculated using the following general sigmoidal curve with variable Hill slope equation (described as Model 42 in the Accelrys® Assay Explorer v3.3 software): y=(a−d)/(1+(x/c)^b)+d
General sigmoidal curve with concentration, response, top, bottom, EC50 and Hill slope.
This model describes a sigmoidal curve with an adjustable baseline, a. The equation can be used to fit curves where response is either increasing or decreasing with respect to the independent variable, “x”.
“x” is a concentration of drug under test.
“a” is the maximum response, and “d” is the minimum response
“c” is the inflection point (EC50) for the curve. That is, “y” is halfway between the lower and upper asymptotes when x=c.
“b” is the slope-factor or Hill coefficient. The sign of b is positive when the response increases with increasing dose and is negative when the response decreases with increasing dose (inhibition).

pEC50: −log10 of the molar value.

Chain of F508delCFTR (P13569 with tags, fused parts or gaps DEL508-508): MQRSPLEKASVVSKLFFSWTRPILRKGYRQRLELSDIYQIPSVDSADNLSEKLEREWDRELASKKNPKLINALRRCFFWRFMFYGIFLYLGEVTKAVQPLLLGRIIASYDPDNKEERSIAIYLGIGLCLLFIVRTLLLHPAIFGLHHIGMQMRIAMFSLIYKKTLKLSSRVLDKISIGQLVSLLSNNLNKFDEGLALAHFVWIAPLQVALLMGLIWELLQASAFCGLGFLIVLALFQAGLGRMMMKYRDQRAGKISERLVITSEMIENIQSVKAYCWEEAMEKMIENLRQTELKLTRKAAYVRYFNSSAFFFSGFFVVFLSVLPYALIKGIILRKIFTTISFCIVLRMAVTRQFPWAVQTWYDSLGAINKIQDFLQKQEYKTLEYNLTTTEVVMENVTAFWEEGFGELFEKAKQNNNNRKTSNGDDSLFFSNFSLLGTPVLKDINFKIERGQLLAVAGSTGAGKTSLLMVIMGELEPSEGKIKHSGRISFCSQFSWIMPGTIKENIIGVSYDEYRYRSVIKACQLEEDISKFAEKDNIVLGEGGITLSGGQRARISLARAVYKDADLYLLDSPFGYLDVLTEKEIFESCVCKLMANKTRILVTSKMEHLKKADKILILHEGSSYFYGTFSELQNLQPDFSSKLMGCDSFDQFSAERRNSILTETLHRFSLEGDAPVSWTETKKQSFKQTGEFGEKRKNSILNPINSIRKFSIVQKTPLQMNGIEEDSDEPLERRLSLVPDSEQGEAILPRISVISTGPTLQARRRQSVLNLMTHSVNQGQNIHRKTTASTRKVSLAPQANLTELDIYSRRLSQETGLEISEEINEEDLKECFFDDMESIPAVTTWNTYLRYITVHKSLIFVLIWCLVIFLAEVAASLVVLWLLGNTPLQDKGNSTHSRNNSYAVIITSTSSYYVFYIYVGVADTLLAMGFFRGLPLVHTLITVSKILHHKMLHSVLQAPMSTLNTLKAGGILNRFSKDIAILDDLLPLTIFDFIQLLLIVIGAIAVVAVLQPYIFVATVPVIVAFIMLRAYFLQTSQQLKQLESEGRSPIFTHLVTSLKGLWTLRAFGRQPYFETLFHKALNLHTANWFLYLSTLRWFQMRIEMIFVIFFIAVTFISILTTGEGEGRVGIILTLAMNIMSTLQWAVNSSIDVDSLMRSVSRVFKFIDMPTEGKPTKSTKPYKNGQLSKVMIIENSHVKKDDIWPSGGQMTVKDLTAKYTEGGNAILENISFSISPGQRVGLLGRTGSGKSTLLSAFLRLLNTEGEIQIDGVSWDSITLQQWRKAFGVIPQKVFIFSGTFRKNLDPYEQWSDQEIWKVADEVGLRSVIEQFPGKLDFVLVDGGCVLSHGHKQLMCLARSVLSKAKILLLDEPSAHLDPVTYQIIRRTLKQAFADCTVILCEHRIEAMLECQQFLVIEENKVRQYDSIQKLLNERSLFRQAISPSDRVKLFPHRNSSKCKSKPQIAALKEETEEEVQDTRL

With `CCOC(=O)[C@H]1C[C@@H](NC(=O)C2(c3ccc4c(c3)OC(F)(F)O4)CC2)c2ccc(OC)cc2O1` (racemic) [Example 163, ethyl rac-(2R,4R)-4-({[1-(2,2-difluoro-1,3-benzodioxol-5-yl)cyclopropyl]carbonyl}amino)-7-methoxy-3,4-dihydro-2H-chromene-2-carboxylate], the pEC50 – broadly, the negative decadic logarithm of the EC50, by convention in mol/L – is 5.44 and the maximal response (Emax) – broadly, the greatest response seen or fitted, relative to the assay's reference – came out at 42%.

In the case of `COc1ccc2c(c1)O[C@@H](C(=O)O)C[C@H]2NC(=O)C1(c2ccc3c(c2)OC(F)(F)O3)CC1` (racemic) [Example 164, rac-(2R,4R)-4-({[1-(2,2-difluoro-1,3-benzodioxol-5-yl)cyclopropyl]carbonyl}amino)-7-methoxy-3,4-dihydro-2H-chromene-2-carboxylic acid], the negative-log EC50 (pEC50) was < 4.70 and the maximal effect (Emax) is 2%.

In turn, `CCCN(CCO)C(=O)[C@H]1C[C@@H](NC(=O)C2(c3ccc4c(c3)OC(F)(F)O4)CC2)c2ccc(OC)cc2O1` (racemic) [Example 166, rac-(2R,4R)-4-({[1-(2,2-difluoro-1,3-benzodioxol-5-yl)cyclopropyl]carbonyl}amino)-N-(2-hydroxyethyl)-7-methoxy-N-propyl-3,4-dihydro-2H-chromene-2-carboxamide] had a pEC50 of 5.70 and an Emax of 65%.

Regarding `COc1ccc2c(c1)O[C@@H](C(=O)N(CCO)Cc1ccccc1)C[C@H]2NC(=O)C1(c2ccc3c(c2)OC(F)(F)O3)CC1` (racemic) [Example 167, rac-(2R,4R)—N-benzyl-4-({[1-(2,2-difluoro-1,3-benzodioxol-5-yl)cyclopropyl]carbonyl}amino)-N-(2-hydroxyethyl)-7-methoxy-3,4-dihydro-2H-chromene-2-carboxamide], the negative logarithm of the EC50 (pEC50) is 5.97 and the Emax is 66%.

Consider `COc1ccc2c(c1)O[C@@H](C(=O)N(C)CC(O)c1ccccc1)C[C@H]2NC(=O)C1(c2ccc3c(c2)OC(F)(F)O3)CC1` (mixture of isomers) [Example 168, rac-(2R,4R)-4-({[1-(2,2-difluoro-1,3-benzodioxol-5-yl)cyclopropyl]carbonyl}amino)-N-(2-hydroxy-2-phenylethyl)-7-methoxy-N-methyl-3,4-dihydro-2H-chromene-2-carboxamide], for which the pEC50 was 5.94 and the Emax worked out at 67%.

In the case of `COc1ccc2c(c1)O[C@@H](C(=O)N1CCN(CCO)CC1)C[C@H]2NC(=O)C1(c2ccc3c(c2)OC(F)(F)O3)CC1` (racemic) [Example 169, rac-1-(2,2-difluoro-1,3-benzodioxol-5-yl)-N-[(2R,4R)-2-{[4-(2-hydroxyethyl)piperazin-1-yl]carbonyl}-7-methoxy-3,4-dihydro-2H-chromen-4-yl]cyclopropanecarboxamide], the negative-log EC50 (pEC50) is 5.31 and the Emax came to 38%.

On to `COc1ccc2c(c1)O[C@@H](C(=O)NC(C)(C)CO)C[C@H]2NC(=O)C1(c2ccc3c(c2)OC(F)(F)O3)CC1` (racemic) [Example 170, rac-(2R,4R)-4-({[1-(2,2-difluoro-1,3-benzodioxol-5-yl)cyclopropyl]carbonyl}amino)-N-(1-hydroxy-2-methylpropan-2-yl)-7-methoxy-3,4-dihydro-2H-chromene-2-carboxamide], for which the pEC50 is 5.81 and the maximal effect (Emax) was found to be 65%.

`COc1ccc2c(c1)O[C@@H](C(=O)NC(CO)c1ccccc1)C[C@H]2NC(=O)C1(c2ccc3c(c2)OC(F)(F)O3)CC1` (mixture of isomers) [Example 171, rac-(2R,4R)-4-({[1-(2,2-difluoro-1,3-benzodioxol-5-yl)cyclopropyl]carbonyl}amino)-N-(2-hydroxy-1-phenylethyl)-7-methoxy-3,4-dihydro-2H-chromene-2-carboxamide] gave a negative-log EC50 (pEC50) of 5.64 and an Emax of 40%.

In the case of `COc1ccc2c(c1)O[C@@H](C(=O)NC1CCS(=O)(=O)CC1)C[C@H]2NC(=O)C1(c2ccc3c(c2)OC(F)(F)O3)CC1` (racemic) [Example 172, rac-(2R,4R)-4-({[1-(2,2-difluoro-1,3-benzodioxol-5-yl)cyclopropyl]carbonyl}amino)-N-(1,1-dioxidotetrahydro-2H-thiopyran-4-yl)-7-methoxy-3,4-dihydro-2H-chromene-2-carboxamide], the pEC50 is 5.39 and the Emax came out at 66%.

As for `COc1ccc2c(c1)O[C@@H](C(=O)NC1(C(F)(F)F)COC1)C[C@H]2NC(=O)C1(c2ccc3c(c2)OC(F)(F)O3)CC1` (racemic) [Example 173, rac-(2R,4R)-4-({[1-(2,2-difluoro-1,3-benzodioxol-5-yl)cyclopropyl]carbonyl}amino)-7-methoxy-N-[3-(trifluoromethyl)oxetan-3-yl]-3,4-dihydro-2H-chromene-2-carboxamide], the negative-log EC50 (pEC50) was 5.67 and the maximum response (Emax) turned out to be 27%.

`COc1ccc2c(c1)O[C@@H](C(=O)N1CCC(F)(F)CC1)C[C@H]2NC(=O)C1(c2ccc3c(c2)OC(F)(F)O3)CC1` (racemic) [Example 174, rac-1-(2,2-difluoro-1,3-benzodioxol-5-yl)-N-{(2R,4R)-2-[(4,4-difluoropiperidin-1-yl)carbonyl]-7-methoxy-3,4-dihydro-2H-chromen-4-yl}cyclopropanecarboxamide]: the pEC50 is 5.76 and the maximal response (Emax) came to 55%.

Molecule `COc1ccc2c(c1)O[C@@H](C(=O)N1CCCOCC1)C[C@H]2NC(=O)C1(c2ccc3c(c2)OC(F)(F)O3)CC1` (racemic) [Example 175, rac-1-(2,2-difluoro-1,3-benzodioxol-5-yl)-N-[(2R,4R)-7-methoxy-2-(1,4-oxazepan-4-ylcarbonyl)-3,4-dihydro-2H-chromen-4-yl]cyclopropanecarboxamide] had a pEC50 of 5.49 and a maximal response (Emax) of 54%.

Turning to `COc1ccc2c(c1)O[C@@H](C(=O)N(C)C1COC1)C[C@H]2NC(=O)C1(c2ccc3c(c2)OC(F)(F)O3)CC1` (racemic) [Example 176, rac-(2R,4R)-4-({[1-(2,2-difluoro-1,3-benzodioxol-5-yl)cyclopropyl]carbonyl}amino)-7-methoxy-N-methyl-N-(oxetan-3-yl)-3,4-dihydro-2H-chromene-2-carboxamide], the negative-log EC50 (pEC50) is 5.02 and the maximal effect (Emax) turned out to be 30%.

Consider `COc1ccc2c(c1)O[C@@H](C(=O)N1CCOCC1)C[C@H]2NC(=O)C1(c2ccc3c(c2)OC(F)(F)O3)CC1` (racemic) [Example 177, rac-1-(2,2-difluoro-1,3-benzodioxol-5-yl)-N-[(2R,4R)-7-methoxy-2-(morpholin-4-ylcarbonyl)-3,4-dihydro-2H-chromen-4-yl]cyclopropanecarboxamide], for which the pEC50 was 5.54 and the Emax worked out at 56%.

Consider `COc1ccc2c(c1)O[C@@H](C(=O)NC(CO)c1ccccc1OC)C[C@H]2NC(=O)C1(c2ccc3c(c2)OC(F)(F)O3)CC1` (mixture of isomers) [Example 178, rac-(2R,4R)-4-({[1-(2,2-difluoro-1,3-benzodioxol-5-yl)cyclopropyl]carbonyl}amino)-N-[2-hydroxy-1-(2-methoxyphenyl)ethyl]-7-methoxy-3,4-dihydro-2H-chromene-2-carboxamide], for which the negative-log EC50 (pEC50) is 6.13 and the maximum response (Emax) was 64%.

For the origin of these results see patent US9642831B2, “Substituted chromanes and method of use” (AbbVie S.á.r.l., priority 2014, dated 2017).
